Measurements reported in patent US7792665B2, “Method for designing a compound based on the three dimensional structure of phosphoinositide dependent protein kinase 1 (PDK1)” (Medical Research Council, priority 2002, dated 2010).
Residue numbers refer to the chain shown, from its start. Entries after “also recorded” stand apart in the source; their conditions may differ. Where a SMILES comes first, the peptide text is derived from it. [ ]: non-standard residue; d: D form. pT = C[C@@H](OP(=O)(O)O)[C@H](N)C(=O)O

How the values were obtained:
[1] = target: T1, PDK1[R131A] (Homo sapiens, UniProt O15530, R131A); assay: PDK1 catalytic activity towards T308tide, activation by peptides, PDK1[R131A]; format: biochemical
T1 construct: GST (N); made in house; host or cells: human embryonic kidney 293 cells (pEBG2T vector)
T1 sequence (O15530 1-556 R131A): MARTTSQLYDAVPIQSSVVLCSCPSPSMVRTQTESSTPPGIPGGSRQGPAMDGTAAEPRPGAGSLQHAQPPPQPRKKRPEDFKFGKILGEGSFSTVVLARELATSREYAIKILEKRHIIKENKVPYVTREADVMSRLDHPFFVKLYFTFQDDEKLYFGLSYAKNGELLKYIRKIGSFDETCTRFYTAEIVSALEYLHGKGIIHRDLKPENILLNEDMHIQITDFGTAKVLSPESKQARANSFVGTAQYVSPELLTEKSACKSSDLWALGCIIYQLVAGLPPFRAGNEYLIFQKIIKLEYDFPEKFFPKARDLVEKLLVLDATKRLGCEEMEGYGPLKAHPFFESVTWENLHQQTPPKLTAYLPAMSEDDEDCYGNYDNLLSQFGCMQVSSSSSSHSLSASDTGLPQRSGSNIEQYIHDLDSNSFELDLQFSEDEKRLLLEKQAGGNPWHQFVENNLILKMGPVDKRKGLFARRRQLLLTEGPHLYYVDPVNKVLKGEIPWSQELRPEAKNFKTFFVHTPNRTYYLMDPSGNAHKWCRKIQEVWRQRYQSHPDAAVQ
Procedure: (§1) C. Activation of the indicated forms of PDK1 by 56K-pHM and S6K-HM. PDK1 activity was measured using the peptide substrate (T308tide) in the presence of the indicated concentrations of 56K-pHM (closed circles) and S6K-HM (open circles) as described in the methods. Assays were performed in triplicate and similar results obtained in 2 separate experiments. The results are the average—SD for a single experiment.
(§2) The ability of wild type and mutant PDK1 to phosphorylate the synthetic peptide T308tide ([…] ([Biondi et al., 2000]) (SEQ ID NO:108) was carried out in 30 μl assays containing 100 ng of wild type or mutant PDK1, 50 mM Tris/HCl pH 7.5, 0.1% 13-mercaptoethanol, 10 mM MgCl2, 100 μM [32γ P]ATP (200 cpm/pmol), 0.5 μM microcystin-LR, 1 mM T308tide in the presence or absence of the indicated concentrations of the 56K-pHM peptide ([…](P)YVAPSV) (SEQ ID NO:104) or 56K-HM. peptide ([…]) (SEQ ID NO:105). After incubation for 10 min at 30° C., 25 μl of the resultant mixture was spotted into P81 phosphocellulose paper (2×2 cm) and the papers washed and analysed as described previously for assays of MAP kinase. Control assays were carried out in parallel in which either PDK1, or peptide substrate were omitted; these values were always less than 5% of the activity measured in the presence of these reagents. One Unit of PDK1 activity was defined as that amount required to catalyse the phosphorylation of 1 nmol of the T308tide in 1 min.

[2] = target: T2, mutant of PDK1 in which both Lys76 and Arg131 were changed to Ala (Homo sapiens, UniProt O15530, K76A/R131A); assay: PDK1 catalytic activity towards T308tide, activation by peptides, Lys76 and Arg131 to Ala double mutant; format: biochemical; conditions: peptide 0.3 and 1 mM, compared with PDK1[R131A]
T2 construct: GST (N); made in house; host or cells: human embryonic kidney 293 cells (pEBG2T vector)
Procedure: as §1
as §2, with “One Unit of PDK1 activity was defined as that amount required to catalyse the phosphorylation of 1 nmol of the T308tide in 1 min.” left out

[3] = target: T1, PDK1[R131A]; assay: Surface plasmon resonance (BiaCore) binding, PDK1[R131A]
Procedure: (§3) Binding and activation of wild type and mutant forms of PDK1 to a phosphopeptide derived from the hydrophobic motif of S6K1. The binding of the wild type (wt) PDK1 and indicated mutants to a phosphopeptide comprising the hydrophobic motif of S6K1 (S6K-pHM: […]*YVAPSV, where T* indicates phospho-threonine, SEQ ID NO:104) was analysed by surface plasmon resonance as described in the Materials and Methods.
(§4) A. The sensor chip SA was coated with 12RUs of the biotinylated S6K-pHM peptide and the binding was analysed following injection of 270 nM wild type PDK1, PDK1 [T148A] and PDK1 [K76A]. […] (data not shown).
Binding was analysed in a BiaCore 3000 system (BiaCore AB, Stevenage, UK). Biotinylated S6K-pHM (Biotin-C12-[…](P)YVAPSV) (SEQ ID NO:104) or the non-phosphorylated form of this peptide S6K-HM was bound to an streptavidin-coated Sensor chip (SA) (12 response units, RU). 30 μl of wild type or the indicated mutant GST-PDK1 were injected at a flow rate of 30 μl/min, in buffer HBS-P (10 mM HEPES pH 7.4, 0.15M NaCl, 0.005% (by vol) polysorbate-20) supplemented with 1 mM DTT. Specific interactions between 56K-pHM and PDK1 proteins were obtained between the concentration range of 2-2150 nM PDK1. Steady state binding was determined at each concentration. Dissociation of PDK1 from the phospho-peptide was monitored over a 1 min period. […]

[4] = target: T3, PDK1[K76A] (Homo sapiens, UniProt O15530, K76A); assay: Surface plasmon resonance (BiaCore) binding, PDK1[K76A]; conditions: relative to wild type PDK1
T3 construct: made in house; host or cells: human embryonic kidney 293 cells (pEBG2T vector)
T3 sequence (O15530 1-556 K76A): T1 sequence (O15530 1-556 R131A) with K76A, A131R
Procedure: as §3, §4
B. As in A. except that binding was analysed over a range of PDK1 concentrations (2-2150 nM). The response level at the steady state binding is plotted versus the log of the PDK1 concentration. The estimated Kd was obtained by fitting the data to a sigmoid curve using Kaleidagraph software.
Binding was analysed in a BiaCore 3000 system (BiaCore AB, Stevenage, UK). Biotinylated S6K-pHM (Biotin-C12-[…](P)YVAPSV) (SEQ ID NO:104) or the non-phosphorylated form of this peptide S6K-HM was bound to an streptavidin-coated Sensor chip (SA) (12 response units, RU). […] Steady state binding was determined at each concentration. Dissociation of PDK1 from the phospho-peptide was monitored over a 1 min period. […]

T2 sequence (O15530 whole entry K76A/R131A): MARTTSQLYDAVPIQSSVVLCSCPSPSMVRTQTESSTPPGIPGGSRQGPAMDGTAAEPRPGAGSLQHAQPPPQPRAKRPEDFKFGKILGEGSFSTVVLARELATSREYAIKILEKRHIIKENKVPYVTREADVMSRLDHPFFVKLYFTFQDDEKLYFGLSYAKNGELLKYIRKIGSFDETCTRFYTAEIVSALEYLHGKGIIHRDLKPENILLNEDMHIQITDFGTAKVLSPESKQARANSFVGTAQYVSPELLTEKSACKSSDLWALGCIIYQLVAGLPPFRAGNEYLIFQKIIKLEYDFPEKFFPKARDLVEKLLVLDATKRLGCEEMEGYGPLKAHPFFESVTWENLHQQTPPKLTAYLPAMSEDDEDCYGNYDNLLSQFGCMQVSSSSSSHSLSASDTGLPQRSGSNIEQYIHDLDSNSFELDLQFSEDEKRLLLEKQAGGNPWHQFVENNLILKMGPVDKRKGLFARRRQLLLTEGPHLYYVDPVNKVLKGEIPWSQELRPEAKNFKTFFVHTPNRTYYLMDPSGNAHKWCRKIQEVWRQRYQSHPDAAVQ

CC(C)C[C@H](NC(=O)[C@H](Cc1ccccc1)NC(=O)[C@@H](NC(=O)[C@H](CCC(N)=O)NC(=O)[C@H](CC(N)=O)NC(=O)[C@H](C)NC(=O)[C@H](CO)NC(=O)[C@H](CCC(=O)O)NC(=O)[C@@H](N)CO)C(C)C)C(=O)NCC(=O)N[C@@H](Cc1ccccc1)C(=O)N[C@H](C(=O)N[C@@H](Cc1ccc(O)cc1)C(=O)N[C@H](C(=O)N[C@@H](C)C(=O)N1CCC[C@H]1C(=O)N[C@@H](CO)C(=O)N[C@H](C(=O)O)C(C)C)C(C)C)[C@@H](C)OP(=O)(O)O [S6K-pHM] (H-SESANQVFLGF[pT]YVAPSV-OH; N-terminus and C-terminus assumed)
activation of PDK1[R131A] ([1]; peptide 0.3 and 1 mM): only moderately further increased
activation of PDK1[R131A] ([1]; peptide below 0.1 mM): not significantly activated
activation of Lys76/Arg131 to Ala double mutant [2]: activated even less significantly
binding of PDK1[R131A] to peptide [3]: No detectable binding; also recorded: did not detectably interact
lower affinity of PDK1[K76A] than wild type PDK1 [4]: 3 fold
